From US7799775B2, “Pyrimidine derivatives” (ASKA Pharmaceutical Co., Ltd., priority 2004, dated 2010)

Experiments:
human 5-HT1A receptor = target: T1, human 5-HT1A receptor (Homo sapiens, UniProt P08908); test: Affinity measurement of the compounds to human 5-HT1A receptor (in vitro), [3H]8-OH-DPAT binding; settings: test compound 100 nmols/L; [3H]8-OH-DPAT 0.25 nmols/L; CHO cell membrane expressing human 5-HT1A receptor; read-out: Percent Inhibition (%) on Each Receptor's Binding at 10^−7M, 5-HT1A
T1 construct: purchased Packard Bioscience; host or cells: CHO cells (membrane preparation)
T1 sequence (P08908 1-422): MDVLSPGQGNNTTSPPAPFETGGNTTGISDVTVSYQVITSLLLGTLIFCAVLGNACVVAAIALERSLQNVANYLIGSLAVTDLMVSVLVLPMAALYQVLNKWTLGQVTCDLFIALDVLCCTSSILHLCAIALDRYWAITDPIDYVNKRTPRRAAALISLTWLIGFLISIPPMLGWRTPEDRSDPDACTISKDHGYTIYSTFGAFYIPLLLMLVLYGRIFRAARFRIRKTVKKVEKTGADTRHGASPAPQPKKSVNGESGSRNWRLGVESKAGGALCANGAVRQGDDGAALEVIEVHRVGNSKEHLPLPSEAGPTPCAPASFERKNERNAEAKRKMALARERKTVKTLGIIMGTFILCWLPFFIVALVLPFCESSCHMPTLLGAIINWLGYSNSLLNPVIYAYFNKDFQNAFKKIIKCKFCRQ
In short: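 Membranes from CHO cells expressing human 5-HT1A were incubated 60 min at 27 °C with 0.25 nmol/L [3H]8-OH-DPAT and compound in Tris/MgSO4/EDTA/ascorbate buffer, pH 7.4. Bound radioactivity was collected on PEI-soaked GF/C filters and counted; percent inhibition was corrected for non-specific binding defined with 10 μmol/L 8-OH-DPAT.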

5-HT1A receptor = target: T2, 5-HT1A receptor (Rattus norvegicus, UniProt P19327); test: Measurement of 5-HT1A receptor agonistic action on rats (in vivo): lower lip retraction and flat body posture; settings: SD male rats, 10 mg/kg intraperitoneal; maximum of group evaluation points, 4 grades 0-3, observed 5-30 min after administration
T2 construct: from tissue; host or cells: whole animal (SD male rats), behavioural read-out
T2 sequence (P19327 1-422): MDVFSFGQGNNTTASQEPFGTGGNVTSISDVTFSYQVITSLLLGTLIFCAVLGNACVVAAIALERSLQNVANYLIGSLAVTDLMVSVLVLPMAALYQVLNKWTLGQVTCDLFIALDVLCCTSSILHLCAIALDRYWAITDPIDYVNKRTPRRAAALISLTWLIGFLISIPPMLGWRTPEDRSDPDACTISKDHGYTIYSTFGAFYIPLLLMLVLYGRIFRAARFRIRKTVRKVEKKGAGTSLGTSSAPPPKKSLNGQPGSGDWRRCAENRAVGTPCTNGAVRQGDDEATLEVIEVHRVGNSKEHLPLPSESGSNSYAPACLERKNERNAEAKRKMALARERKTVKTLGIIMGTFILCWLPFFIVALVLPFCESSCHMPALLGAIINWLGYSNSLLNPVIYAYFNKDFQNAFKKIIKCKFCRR
Protocol: (3) Measurement of 5-HT1A Receptor Agonistic Action on Rats (in Vivo):
Seven weeks old SD male rats were divided into 4-5 rats per group which were accustomized to the experimental environments twice. A week after the second accustomization, the rats were put into a transparent plastic case, and 10 mg/kg of a test compound (as dissolved in 1N-hydrochloric acid and diluted with suitable amount of saline) was intraperitoneally administered thereto. Immediately before the administration and 5, 10, 20 and 30 minutes after the administration, behaviors of the rats were observed as to lower lip retraction (LLP) and flat body posture (FBP). The results were evaluated in 4 grades (0: no reaction, 1: feeble reaction, 2: medium reaction, 3: maximum reaction).

[1] = test system: rats under restraint stress; test: Measurement of defecation acceleration in rats under restraint stress; format: in vivo, rat; settings: 1 hour restraint stress, group average (Normal 1.7, Control 6.8)
Protocol: (5) Measurement of Defecation Acceleration in Rats under Restraint Stress […] Feed and drinking water were left for their free ingestion until the morning of the day on which the test was given. On the day of the experiment, test compounds were orally administered and positive control solution (the used compounds were dissolved in 1N-hydrochloric acid and diluted with a suitable amount of saline) was administered intraperitoneally. Five (5) minutes thereafter, under lightly anesthetized condition, the rats were placed under restraint stress, with their upper half of the bodies including the front feet immobilized with gum tape. The restraint stress loading was conducted for an hour, and the number of excrements discharged during that period was counted. […] Those compounds which were used as the positive control chemicals used in the acceleration of defecation in rats under restraint stress are identified with the following structures.

Compound | inhibition at 0.1 µM (human 5-HT1A receptor) | 5-HT1A Receptor Agonistic Action on Rats, FBP (5-HT1A receptor) | 5-HT1A Receptor Agonistic Action on Rats, LLR (5-HT1A receptor) | Number of excrements ([1]; 1 mg/kg oral administration) | Number of excrements ([1]; 3 mg/kg oral administration) | Number of excrements ([1]; 10 mg/kg oral administration) | Number of excrements ([1]; 0.3 mg/kg intraperitoneal administration) | Number of excrements ([1]; 1 mg/kg intraperitoneal administration) | Number of excrements ([1]; 3 mg/kg intraperitoneal administration)
Cc1cc(N2CCN(CCCCc3nc4c(c(=O)n3C)CCCC4)CC2)nc2ccccc12 [Example 7-6, 3-methyl-2-[4-[4-(4-methylquinolin-2-yl)piperazin-1-yl]butyl]-5,6,7,8-tetrahydro-3H-quinazolin-4-one] | 97.4% | 2.0 | 2.4 | 5.4 | 4.0 | 2.9 |  |  | 
c1cc2ccsc2c(N2CCN3CCC[C@H]3C2)n1 [Production Example 103, 7-((8aS)-octahydropyrrolo[1,2-a]pyrazin-2-yl)thieno[2,3-c]pyridine] | 91.4% | 0.4 | 3.0 |  |  |  |  |  | 
CN1CCN(c2nccc3ccsc23)CC1 [Production Example 6, 7-(4-methylpiperazin-1-yl)thieno[2,3-c]pyridine] | 90.1% | 2.4 | 2.8 |  |  |  |  |  | 
COc1ccc2ccnc(N3CCN4CCC[C@H]4C3)c2c1 [Production Example 72, 1-((8aS)-octahydropyrrolo[1,2-a]pyrazin-2-yl)-7-methoxyisoquinoline] | 96.7% | 3.0 | 3.0 |  |  |  |  |  | 
c1cc2ccoc2c(N2CCN3CCC[C@H]3C2)n1 [Production Example 102, 7-((8aS)-octahydropyrrolo[1,2-a]pyrazin-2-yl)furo[2,3-c]-pyridine] | 95.4% | 3.0 | 3.0 |  |  |  |  |  | 
c1cc2sccc2c(N2CCN3CCC[C@H]3C2)n1 [Production Example 104, 4-((8aS)-octahydropyrrolo[1,2-a]pyrazin-2-yl)thieno[3,2-c]pyridine] | 85.5% | 0.2 | 1.6 |  |  |  |  |  | 
Clc1ccc2ccnc(N3CCNCC3)c2c1 [Production Example 49, 7-chloro-1-piperazin-1-ylisoquinoline] | 88.7% | 1.8 | 2.2 |  |  |  |  |  | 
Nn1c(CCCCN2CCN(c3ccc4ccccc4n3)CC2)nc2c(c1=O)CCCC2 [Example 4-1, 3-amino-2-[4-(4-quinolin-2-ylpiperazin-1-yl)butyl]-5,6,7,8-tetrahydro-3H-quinazolin-4-one] | 101% | 1.8 | 1.5 |  |  |  | 5.3 | 4.3 | 2.1
Cc1cc(N2CCN(CCCCc3nc4ccccc4c(=O)n3N)CC2)nc2ccccc12 [Example 4-4, 3-amino-2-[4-[4-(4-methylquinolin-2-yl)piperazin-1-yl]butyl]-3H-quinazolin-4-one] | 98.7% | 2.6 | 2.8 |  |  |  |  |  | 
Cc1ccc2ccnc(N3CCN(C)CC3)c2c1 [Production Example 47, 7-methyl-1-(4-methylpiperazin-1-yl)isoquinoline] | 90.6% |  |  |  |  |  |  |  | 
CCn1c(CCCCN2CCN(c3ccc4ccccc4n3)CC2)nc2c(c1=O)CCCC2 [Example 7-2, 3-2-[4-(4-quinolin-2-ylpiperazin-1-yl)butyl]-5,6,7,8-tetrahydro-3H-quinazolin-4-one] | 93.3% | 0.4 | 0.2 |  |  |  |  |  | 
c1cc2ccsc2c(N2CCN3CCC[C@@H]3C2)n1 [Production Example 108, 7-((8aR)-octahydropyrrolo[1,2-a]pyrazin-2-yl)thieno[2,3-c]pyridine] | 90.6% | 0.4 | 2.4 |  |  |  |  |  | 
COc1ccc2ccnc(N3CCNC(C)C3)c2c1 (centres unmarked) [Production Example 38, 7-methoxy-1-(3-methylpiperazin-1-yl)isoquinoline] | 94.8% |  |  |  |  |  |  |  | 
CCn1c(CCCCN2CCN(c3cc(C)c4ccccc4n3)CC2)nc2c(c1=O)CCCC2 [Example 7-7, 3-ethyl-2-[4-[4-(4-methylquinolin-2-yl)piperazin-1-yl]butyl]-5,6,7,8-tetrahydro-3H-quinazolin-4-one] | 96.9% | 2.2 | 2.2 |  |  |  |  |  | 
CN1CCN(c2nccc3sccc23)CC1 [Production Example 8, 4-(4-methylpiperazin-1-yl)thieno[3,2-c]pyridine] | 78.3% | 0.8 | 2.0 |  |  |  |  |  | 
Nn1c(CCCCN2CCN(c3ccc4ccccc4n3)CC2)nc2ccccc2c1=O [Example 4-3, 3-amino-2-[4-(4-quinolin-2-ylpiperazin-1-yl)butyl]-3H-quinazolin-4-one] | 98.2% | 1.8 | 1.8 |  |  |  |  |  | 
Nn1c(CCCCN2CCN(c3ccc4ccccc4n3)CC2)nc2cccc(Cl)c2c1=O [Example 4-25, 3-amino-5-chloro-2-[4-(4-quinolin-2-ylpiperazin-1-yl)butyl]-3H-quinazolin-4-one] | 99.4% | 1.0 | 0.8 |  |  |  |  |  | 
Clc1ccc2ccnc(N3CCN4CCC[C@H]4C3)c2c1 [Production Example 73, 7-chloro-1-((8aS)-octahydropyrrolo[1,2-a]pyrazin-2-yl)isoquinoline] | 98.3% | 2.2 | 2.4 |  |  |  |  |  | 
Cn1c(CCCCN2CCN(c3ccc4ccccc4n3)CC2)nc2c(c1=O)CCCC2 [Example 7-1, 3-methyl-2-[4-(4-quinolin-2-ylpiperazin-1-yl)butyl]-5,6,7,8-tetrahydro-3H-quinazolin-4-one] | 97.5% | 1.8 | 2.2 | 5.8 | 3.8 | 2.3 |  |  | 
Nn1c(CCCCN2CCN(c3ccc4ccccc4n3)CC2)nc2ccsc2c1=O [Example 4-18, 3-amino-2-[4-(4-quinolin-2-ylpiperazin-1-yl)butyl]-3H-thieno[3,2-d]-pyrimidin-4-one] | 98% | 2.8 | 2.2 |  |  |  |  |  | 
Cc1cc2c(N3CCN4CCC[C@H]4C3)nccc2s1 [Production Example 107, 4-((8aS)-octahydropyrrolo[1,2-a]pyrazin-2-yl)-2-methylthieno[3,2-c]-pyridine] | 98.5% | 3.0 | 2.8 |  |  |  |  |  | 
